Experimental data reported in patent publication US20070172509A1, “Drug Delivery System for Retarding Release of Water Soluble Drugs” (Conor Medsystems, Inc., priority 2006, published 2007).
In brackets after ≈: the same amount, converted by molar mass.

Experiments:
[1] = Film morphology of agent in PLGA 85/15 film cast from anisole; format: physicochemical; design: key: A—Amorphous; D—Dispersion; C—Crystalline
[2] = cited from earlier work
[3] = 10% agent in PLGA 85/15 film cast from anisole
[4] = 25% agent in PLGA 85/15 film cast from anisole
[5] = 50% agent in PLGA 85/15 film cast from anisole
[6] = 5% agent in PLGA 85/15 film cast from anisole
[7] = 75% agent in PLGA 85/15 film cast from anisole
[8] = 90% agent in PLGA 85/15 film cast from anisole

Row | Structure (SMILES) | Film Morphology [1, 3] | Film Morphology [1, 4] | Film Morphology [1, 5] | Film Morphology [1, 6] | Film Morphology [1, 7] | Film Morphology [1, 8] | water solubility [2]
1 | CCCCOC(=O)c1ccc(O)cc1 [Butyl 4-Hydroxybenzoate] | A | A | C | A | C | C | –
2 | Nc1nc(Cl)nc2c1ncn2[C@H]1C[C@H](O)[C@@H](CO)O1 [cladribine] | – | – | – | – | – | – | 200 µg/mL (≈ 700 µM)
3 | Cc1cc(C(C)(C)C)c(O)c(C(C)(C)C)c1 [BHT, butylated hydroxy toluene] | A | A | D | A | Mixed | C | –

Further lines, with some results ahead:

Row | Film Morphology [1, 3] | Film Morphology [1, 4] | Film Morphology [1, 5] | Film Morphology [1, 6] | Film Morphology [1, 7] | Film Morphology [1, 8] | Structure (SMILES) | water solubility [2]
4 | A | Mixed | C | – | – | – | CC[C@@H]1/C=C(\C)C[C@H](C)C[C@H](OC)[C@H]2O[C@@](O)(C(=O)C(=O)N3CCCC[C@H]3C(=O)O[C@H](/C(C)=C/[C@@H]3CC[C@H](Cl)[C@H](OC)C3)[C@H](C)[C@@H](O)CC1=O)[C@H](C)C[C@@H]2OC [Pimecrolimus, reference compound] | –
5 | A | Mixed | C | A | C | C | CCCOC(=O)c1ccc(O)cc1 [Propyl 4-hydroxybenzoate] | –
6 | A | – | – | A | – | – | O=C(OCc1ccccc1)c1ccccc1 [Benzyl Benzoate] | –
